Several values for one entry are separate records, joined by “and”; a condition that tells them apart may be missing. Equal values may be shown once.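 48-hour exposure; five concentrations; linearly interpolated endpoints. The concentration for 50% growth inhibition is given as GI50. Definition used: TGI = concentration required for complete inhibition of growth.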
Legend:
Test in all cases: NCI-60 cell line screen, 48 h
A498 renal = system: A498 renal
COLO 205 colon = system: COLO 205 colon
HCT-15 colon = system: HCT-15 colon
HS 578T breast = system: HS 578T breast
IGROV1 ovarian = system: IGROV1 ovarian
LOX IMVI melanoma = system: LOX IMVI melanoma
RXF 393 renal = system: RXF 393 renal
SF-268 CNS = system: SF-268 CNS
SK-MEL-5 melanoma = system: SK-MEL-5 melanoma
UACC-62 melanoma = system: UACC-62 melanoma

SMILES	GI50 (A498 renal) [µM]	TGI (A498 renal) [µM]	GI50 (COLO 205 colon) [µM]	TGI (COLO 205 colon) [µM]	GI50 (HCT-15 colon)	TGI (HCT-15 colon) [µM]	GI50 (HS 578T breast)	TGI (HS 578T breast) [µM]	GI50 (IGROV1 ovarian) [µM]	TGI (IGROV1 ovarian) [µM]	GI50 (LOX IMVI melanoma) [µM]	TGI (LOX IMVI melanoma) [µM]	GI50 (RXF 393 renal) [µM]	TGI (RXF 393 renal) [µM]	GI50 (SF-268 CNS) [µM]	TGI (SF-268 CNS) [µM]	GI50 (SK-MEL-5 melanoma) [µM]	TGI (SK-MEL-5 melanoma) [µM]	GI50 (UACC-62 melanoma) [µM]	TGI (UACC-62 melanoma) [µM]
O=C1NC(=O)C(c2ccccc2)=C1Nc1ccccc1	> 22.1	> 25	> 25	> 25	> 25 µM	> 25	16.3 µM	> 25	> 25	> 25	> 25	> 25	> 25	> 25	> 25	> 25	> 25	> 25	> 25	> 25
CN(CSc1ccc(Cl)cc1)c1ccc(CSc2ccc(Cl)cc2)cc1	1.59	9.61	3.59	13.6	5.18 µM	22.2	3.7 µM	21.1			1.63	6.32	8.28	23.6	1.46	10.4	6.85	19.8	3.82	15.8
CC(C)OCc1cc(CN2CCN(c3cccc(Cl)c3)CC2)c(O)c2ncccc12	0.871	8.25	5.94	19.2	0.153 µM	17.6	4.03 µM	35.3	0.621	16.6	0.416	10.2	2.87	20.2	0.629	14.7	0.445	2.1	0.333	1.43
COc1cc2c(cc1OCCCCn1c(-c3cccs3)nc3ccccc31)N=C[C@@H]1CCCN1C2=O	1.68	4.76	1.07	2.58	3.19 µM	10.5	1.7 µM	6.43	0.754	2.86	0.789	3.93			1.8	5.48	1.09	2.3	1.57	3.08
O=C1c2cccnc2C(=O)c2c1c(C(=O)OCCc1ccccn1)c1ccccn21	< 0.0378	0.824	1.45	3.16	0.0145 µM	1.46	< 0.0338 µM	3.21	0.0421	4.73	0.0206	1.12	0.124	1.4	0.0188	5.31	0.0332	0.299	0.0202	0.219
CCCCN(CC)CCCCCCCCCCN1CCCc2cc(OC)ccc21	2.36	9.54	1.6	3.25	3.3 µM	13.6	4.2 µM	> 100	3.18	12.9	1.7	3.34	2.34	4.93	6.52	32.1	1.73	3.12	2.03	5.31
O=c1[nH]c2ccccc2n2cc3ccccc3c12	11.1	26.7	4.52	> 100	3.31 µM	18.6	0.52 µM	34.7	10.3	25.4	3	12	6.26	29.9	21.6	87.1	1.89	14.9	3.22	15.8
O=c1[nH]c(F)nc2c1ncn2C1OC(CO)C(O)C1O (stereo unspecified)	> 100	> 100	> 100	> 100	> 100 µM	> 100	> 100 µM	> 100	> 100	> 100	> 100	> 100	> 100	> 100	> 100	> 100	> 100	> 100	> 100	> 100
CCN(CC)CC(O)COc1c(Br)c(Br)c(Br)c2c1OC(C)(C)C2 (stereo unspecified)	4.44	17.3	1.98	5.14	4.74 µM	14.7	4.58 µM	19	1.91	5.83	2.08	3.67			8.35	26.3	1.82	3.24	1.9	3.47
Cc1cc(=O)oc2cc(OC(=O)Nc3ccccc3)ccc12		> 100		> 100		> 100		> 100		> 100		> 100		> 100		> 100		> 100		> 100
CC1(C)OC2C(CO)OC(n3ccc(N)nc3=O)C2O1 (stereo unspecified)		> 100		> 100		> 100		> 100		> 100		> 100		> 100		> 100		> 100		> 100
Cn1c(NCC(CN2CCCC2)OC(=O)c2ccccc2)cc(=O)n(C)c1=O (stereo unspecified)	> 100	> 100	> 100	> 100	> 100 µM	> 100	> 100 µM	> 100	> 100	> 100	> 100	> 100	> 100	> 100	> 100	> 100	> 100	> 100	> 100	> 100
O=C(c1cccs1)c1nc2cc(Cl)ccc2[n+]([O-])c1C(F)(F)F	92	> 100	> 100	> 100	> 100 µM	> 100	> 100 µM	> 100	> 100	> 100	> 100	> 100	44.3	> 100	> 100	> 100	45.4	> 100	67.8	> 100
O=C1C=CC(=O)N1c1ccc(I)cc1		39.2		13.9		33.9		66.3		> 67.3		42.9		33.6		> 77.5		34.1		31.8
Cc1ccc(NC(=O)c2nc(S(C)(=O)=O)oc2-c2ccc(F)cc2)cc1Nc1ccc2ncn(C)c(=O)c2c1	16.3	29.8					3.06 µM	14.9											2.03	4.88
FC(F)(F)c1cc(-c2ncn(/C=C\c3nnco3)n2)cc(C(F)(F)F)c1	< 0.0128	0.0639	0.055	14	0.133 µM	> 33.4	0.195 µM	8.28	0.676	> 100	0.0902	3.82	0.0216	0.11	0.0462	10.1	0.165	2.74	0.189	6.76
O=C(O)CNCCc1ccccc1		> 100		> 100		> 100		> 100		> 100		> 100		> 100		> 100		> 100		> 100
O=C(O)c1cn(C2CC2)c2cc(N3CCN(C(=O)Nc4nc(-c5ccc(Br)cc5)cs4)CC3)c(F)cc2c1=O					1.75 µM	> 100	1.91 µM	> 100	3.38	> 100	1.09	> 100	3.9	> 100	1.23	> 100				
CCC(C)(C)[C@H](NC(=O)[C@H]1CCCCN1C)C(=O)N(C)[C@H](C[C@@H](OC(C)=O)c1nc(C(=O)N[C@@H](Cc2ccccc2)C[C@H](C)C(=O)O)cs1)C(C)C	< 0.00167	0.0113	< 0.00167	0.00277	< 0.00167 µM	> 16.7	< 0.00167 µM	> 11.5	< 0.00167	> 16.7	< 0.00167	> 16.7	< 0.00167		0.00217	> 16.7	< 0.00167	0.00294	< 0.00167	> 16.7
O=C(Cc1ccc(Nc2ccnc(C(F)(F)F)c2)cc1)N/N=C/c1ccccc1O	11.2	> 57.9	4.33	22.8	0.634 µM	> 69.5	2.66 µM	29	2.35	> 24.7	1.34	15.9	3.95	38.7	2.17	> 73.8	2.58	11.1	2.17	21.5
Cc1cc(C(O)(c2ccc(Nc3ccccc3)cc2)c2ccc(Nc3ccc(S(=O)(=O)O)cc3)cc2)ccc1N (stereo unspecified)	1.58	3.51	0.782	2.8	1.04 µM	2.95	1.5 µM	5.55	1.52	3.4	0.975	2.17	0.989	2.28	1.68	4.19	1.26	2.58	0.499	2.12
CCC(C)CC(C)C(=O)c1c(O)ccn(O)c1=O (stereo unspecified)			38.3	> 100	0.46 µM	> 100	3.08 µM	> 100	3.18	28.1	0.804	> 100	2.33	> 100	1.29	45.3	1.53	6.1	2.27	6.74
COc1cc(/C=C/C(=O)c2c(C)nc3ccccc3c2C)ccc1OCCCCOc1cc2c(cc1OC)C(=O)N1CCC[C@H]1C=N2	0.286	0.779	0.74	2.14	1.71 µM	5.18	0.229 µM	0.624							0.277	1.04	0.517	1.47	0.6	2.02
O=C(/C=C/c1nnc2n(Cc3ccccc3)c(=O)c3c4c(sc3n12)CCCC4)c1ccccc1	> 100	> 100			2.04 µM and 0.389 µM	> 100	3.76 µM and 0.502 µM	> 100	> 100	> 100	3.48				4.59	> 100	> 100	> 100	> 100	> 100
CCOc1cc(/C=C/C(=O)C(C(=O)/C=C/c2ccc(OC(=O)CNc3nnc(C)s3)c(OCC)c2)C(=O)CNc2nnc(C)s2)ccc1OC(=O)CNc1nnc(C)s1	1.8	3.64	1.7	3.54	2.16 µM	5.85	2.28 µM	12.4			0.897	2.21	1.55	4.85	1.36	4.13	1.71	3.29	1.43	2.8
COc1ncc(-c2ccc3nccc(C#CCN4CCN(S(C)(=O)=O)CC4)c3c2)cc1NS(=O)(=O)c1ccc(F)cc1F	0.048	0.309	0.0418	1.18	0.0614 µM	1.62			< 0.01	0.0333	0.0956	1.41	0.0438	0.354	0.0985	3.93	0.192	0.723	0.0342	0.307
O=C(Nc1ccc(I)cc1)c1cccc([N+](=O)[O-])c1O	1.65	6.55	3.66	34.6	3.36 µM	40.9	4.13 µM	87.7	6.15	> 100	3.28	> 100	2.49	9.09	4.15	> 100			3.77	24
O=[N+]([O-])c1ccc(/C(Cl)=C/c2ccc(/C=C(\Cl)c3ccc([N+](=O)[O-])cc3[N+](=O)[O-])cc2)c([N+](=O)[O-])c1		> 100		> 100		> 100				> 100		> 100		> 100		> 100		> 100		> 100

— PubChem BioAssay (NCI)
